“And” between values parts separate entries of the source, which are not always exact repeats. Equal entries are not always repeated. “Also recorded” adds a separate entry of the source. Where two headings read alike, the source gives them in different places.
Tests used:
[1] = system: Bacillus subtilis var. niger spores; assay type: cell-based; details: for spore strips sterilized: room temperature (Example 6)
Experimental: The sterilization potential of genipin was measured by treating B. subtilis mini spore strips with 1.2×10^6 bacterial spores (ATCC 9372, North American Science Associates, Inc., Northwood, Ohio) with 0.5 mL of sterile 1:1 dimethyl sulfoxide (Avantor Performance Materials, Inc., Center Valley, Pa.): phosphate-buffered saline (Fisher Scientific, Pittsburgh, Pa.) (DMSO: PBS, v/v); 2%, 6%, and 10% genipin in 1:1 DMSO:PBS; and 10% formalin (Fisher Scientific, Pittsburgh, Pa.) (N=4 per group). Genipin treatments corresponded to 8.3 mg, 25 mg, and 42 mg genipin per 10^6 spores for the 2%, 6%, and 10% groups, respectively. Treatment was conducted at room temperature, 20-25° C., for 24 hours and 72 hours. Spore strips were subsequently washed with sterile water and aseptically transferred to Releasat® rapid-readout color changing vials (SGM Biotech, Bozeman, Mont.) which have soybean-casein digest medium with the pH indicator phenol red, designed to change color from orange to yellow in the presence of spore germination and proliferation. Spores were incubated for one week at 37° C.
B. subtilis mini spores strips with 1.2×10^6 spores were treated with 0.5 mL of sterile PBS and 1:1 DMSO:PBS without genipin; 0.03%, 0.32%, and 0.63% genipin in 1:1 DMSO: PBS; 0.63% genipin in PBS; and 10% formalin for 72 hours at room temperature (N=4 per group). Genipin treatments corresponded to 0.13 mg, 1.3 mg, and 2.6 mg genipin per 10^6 spores for the 0.03%, 0.32%, and 0.63% groups, respectively. Spore strips were subsequently washed with sterile water, aseptically transferred to Releasat® vials, and incubated for one week at 37° C.
B. subtilis mini spores strips with 1.2×10^6 spores were treated with 0.5 mL of sterile 1:1 DMSO:PBS without genipin; 0.63%, 2%, 6%, and 10% genipin in 1:1 DMSO:PBS; and 10% formalin for 72 hours at room temperature (N=4 per group). Spore strips were subsequently washed with sterile water, aseptically transferred to Releasat® vials, and incubated for one week at 37° C.
A priori power analysis was performed with G*Power (G*Power 3.1.3, Kiel, Germany). To detect at least a one-log difference in population assays, comparing groups at an α=0.05 and power >0.999 required N=3 per group. One-tailed Mann-Whitney U tests were performed for comparing population assay groups. Chi squared tests and binomial exact confidence intervals were performed comparing spore viability against expected spore counts for dichotomous (sterile, non-sterile) growth in medium based on the manufacturer's certificate of analysis (COA), and the population assays (PA, for B. subtilis only), using Minitab 16 (Minitab, Inc., State College, Pa.). Statistical significance was set at p≦0.05.

[2] = cited from earlier work
fibroblasts [3] = details: cited from earlier work
[4] = system: Geobacillus stearothermophilus spores; assay: Spore strip sterilization, soybean-casein medium; assay type: cell-based
Experimental: (§1) Spore strips of B. pumilus (ATCC 27142) with 1.9×10^6 spores (SGM Biotech, Bozeman, Mont.) and G. stearothermophilus (ATCC 7953) with 1.9×10^6 spores (SGM Biotech, Bozeman, Mont.) were treated with doses of genipin equivalent to those that sterilized of B. subtilis. B. pumilus conventional spore strips were treated with 1.75 mL of solution and G stearothermophilus mini spore strips were treated with 0.5 mL of solution. Spore strips were treated with 1:1 DMSO:PBS; 2.6 mg, 8.3 mg, 25 mg, and […] genipin per 10^6 spores in 1:1 DMSO:PBS; and 10% formalin (N=4). After treatment for 72 hours spore strips were washed and transferred to soybean-casein medium (Becton Dickinson, Franklin Lanes, N.J.). B. pumilus was incubated at 32.5° C. and G stearothermophilus was incubated at 57.5° C.

B. pumilus spores = assay: Spore strip sterilization, soybean-casein medium; assay type: cell-based; details: 72 hours
Experimental: as §1

[5] = system: Chinese hamster ovary (CHO-K1) cells; details: in vitro; cited from earlier work
[6] = system: Bacillus subtilis var. niger spores; assay type: cell-based
3T3 fibroblasts = details: in vitro; cited from earlier work
[7] = system: bovine nucleus pulposus cells; details: cells entrapped in chitosan gels crosslinked with 5% genipin; cited from earlier work
B. subtilis spores = assay: Scanning electron microscopy of genipin-treated spores; assay type: cell-based; details: 10% and 0.63% genipin in 1:1 DMSO:PBS, 72 hours, room temperature
Experimental: The morphology of B. subtilis was evaluated using scanning electron microscopy. Spore strips were either untreated, treated with 0.5 mL of sterile 1:1 DMSO:PBS without genipin, or 0.5 mL of sterile 0.63% or 10% genipin in 1:1 DMSO:PBS for 72 hours at room temperature. After treatment, spore strips were washed with sterile water and dehydrated with increasing concentrations of ethanol (70%, 80%, 90%, and 100%) and subjected to critical point drying. The spore strips were mounted onto a stage, sputter coated with gold, and visualized under a scanning electron microscopy (Hitachi S-4500 Cold Field Emission SEM, Hitachi, Ltd., Tokyo, Japan).

cells in culture = details: 2200 μMolar sterile genipin; cited from earlier work
[8] = system: Bacillus subtilis var. niger spores; assay type: cell-based; details: for colonies at the 1-log reduction level: 72 hours, room temperature
Experimental: B. subtilis mini spores strips with 1.2×10^6 spores were treated with 0.5 mL of sterile PBS; 1:1 DMSO:PBS without genipin; 0.63%, 2%, 6%, and 10% genipin in 1:1 DMSO:PBS; and 10% formalin for 72 hours at room temperature (N=4 per group). Spore strips were then washed with sterile water and then aseptically macerated, serially diluted, and plated onto petri dishes with soybean-casein digest agar (Mo Bio Laboratories, Carlsbad, Calif.). Spores were incubated for 48 hours at 32.5° C. after which time colony counts were performed.

fibroblasts [9] = details: cells directly exposed to genipin solution; cited from earlier work
osteoblasts = details: cells directly exposed to genipin solution; cited from earlier work
[10] = cited from earlier work; remark: listed apart in the source
[11] = system: over 40 bacterial (non-spore forms) and fungal species; details: most 20-40%; cited from earlier work
[12] = 0.03% genipin in 1:1 DMSO:PBS, 72 hours, room temperature
[13] = 0.32% genipin in 1:1 DMSO:PBS, 72 hours, room temperature

## COC(=O)C1=CO[C@@H](O)C2C(CO)=CC[C@H]12 (stereo in doubt) [genipin, methyl (1R,2R,6S)-2-hydroxy-9-(hydroxymethyl)-3-oxabicyclo [4.3.0]nona-4,8-diene-5-carboxylate]
[1]; [12]
  log reduction in spore viability: 5- to 6 log and > 5 log
  spore strips sterile: two of four
[1]; [13]
  log reduction in spore viability: 5- to 6 log and > 5 log
  spore strips sterile: one of four
[1]; 0.63% genipin in 1:1 DMSO:PBS, 72 hours, room temperature (Example 7)
  spore strips sterile: Three of four
[1]; 0.63% genipin in PBS, 72 hours, room temperature
  spore strip viability/sterility: demonstrated viability
[1]; 0.63% genipin, all doses of DMSO (0-50%), 37° C.
  log reduction in spore viability: ≥ 6 log
[1]; 0.63%, 2%, 6%, 10% genipin in 1:1 DMSO:PBS, 72 hours, room temperature (confirmation, Example 8)
  spore strip viability/sterility: sterilized the spore strips
[1]; 0.63%-10% genipin in 1:1 DMSO:PBS, 72 hours, room temperature (confirmatory experiment)
  log reduction in spore viability: at least 6 log
[1]; 1:1 DMSO:PBS, 72 hours, room temperature
  genipin dose necessary for eradication of B. subtilis: at least 2.6 mg/10^6 spores
[1]; 2% genipin in 1:1 DMSO:PBS, 72 hours
  spore strips sterilized: 3 of 4
[1]; 2%-10% genipin in 1:1 DMSO:PBS, 24 hours, room temperature
  spore strip viability/sterility: demonstrated bacterial viability; also recorded: unable to sterilize any spore strips; also recorded: yellow (growth)
[1]; 6% genipin in 1:1 DMSO:PBS, 72 hours
  spore strips sterilized: 3 of 4
[1]; 10% genipin in 1:1 DMSO:PBS, 72 hours
  spore strips sterilized: all
[2]; organic solvents versus PBS
  relative solubility in solvents: more soluble in ethanol than in PBS; also recorded: substantially more soluble in organic solvents
[2]; phosphate-buffered saline
  solubility in PBS: approximately 1%
Fibroblasts [3]; bovine pericardia treated with 0.625% genipin in PBS, within three days
  fibroblast proliferation on treated tissue: substantial fibroblast proliferation
[4]; 2.6 mg genipin/10^6 spores in 1:1 DMSO:PBS, 72 hours
  spore strips sterilized: Three of 4
[4]; 2.6 mg-42 mg genipin/10^6 spores in 1:1 DMSO:PBS, 72 hours, room temperature
  log reduction in spore viability: at least 6 log
[4]; 8.3 mg genipin/10^6 spores in 1:1 DMSO:PBS, 72 hours
  spore strips sterilized: 4/4
[4]; 25 mg genipin/10^6 spores in 1:1 DMSO:PBS, 72 hours
  spore strips sterilized: Three of 4
[4]; 42 mg genipin/10^6 spores in 1:1 DMSO:PBS, 72 hours
  spore strips sterilized: 4/4
B. pumilus spores; 2.6 mg-42 mg genipin/10^6 spores in 1:1 DMSO:PBS, room temperature
  log reduction in spore viability: at least 6 log
B. pumilus spores; all genipin doses (2.6-42 mg per 10^6 spores) in 1:1 DMSO:PBS
  spore strips sterilized: 4/4
[5]
  clastogenic response: does not cause clastogenic response
[6]; 0.63% genipin in 50% DMSO/50% PBS, room temperature (Example 12)
  sterile vials: 2/5
[6]; 0.63% genipin in PBS, 37° C.
  log reduction in spore viability: ≥ 6 log
[6]; 0.63% genipin, all doses of DMSO (0-50%) in PBS, 37° C.
  sterile vials: 5/5
3T3 fibroblasts
  cytotoxicity compared with glutaraldehyde: substantially less cytotoxic than glutaraldehyde
[7]
  cell viability: up to 87%
B. subtilis spores
  spore morphology versus untreated spore strips: no appreciable morphological differences
Cells in culture
  cell death: complete cell death
[8]; 0.63% genipin in 1:1 DMSO:PBS
  colonies at the 1-log reduction level: no colonies
[8]; 0.63% genipin in PBS, one week treatment (unpublished pilot data)
  log reduction in B. subtilis viability: 2 log
[8]; 2% genipin in 1:1 DMSO:PBS
  colonies at the 1-log reduction level: no colonies
[8]; 6% genipin in 1:1 DMSO:PBS
  colonies at the 1-log reduction level: no colonies
[8]; 10% genipin in 1:1 DMSO:PBS
  colonies at the 1-log reduction level: three 10% genipin-treated spore strips yielded no colonies
Fibroblasts [9]
  concentration sufficient for cytotoxicity: 80-100 ppm
osteoblasts
  concentration sufficient for cytotoxicity: 80-100 ppm

## C[S+](C)[O-] [DMSO, dimethyl sulfoxide]
[10]; DMSO washed off or less than 10% DMSO
  toxicity rate: 0.3%
[10]; stem cells cryopreserved with 10% DMSO, review of 34,000 transplants
  toxicity incidence: 1.5%
[11]
  microbicidal concentration: 8 to 40%

## C=O [formalin, reference compound]
[1]; 10% formalin, 24 hours, room temperature
  spore strip viability/sterility: orange (sterile)
[4]; 10% formalin, 72 hours
  spore strip viability/sterility: presence of spore viability
  spore strips from which G. stearothermophilus grew: 100%
[4]; 10% formalin, 72 hours treatment
  time required to demonstrate viability: 2.25 ± 0.50 days
[4]; 10% formalin, 72 hours, listed as 10% formalin
  spore strip viability/sterility: demonstrated viability
[8]; 10% formalin
  colonies at the 1-log reduction level: no colonies

## O=CCCCC=O [glutaraldehyde, reference compound]
Fibroblasts [3]; 0.625% glutaraldehyde-treated pericardia, after seven days
  fibroblast proliferation on treated tissue: no cellular proliferation

— patent US20130225669A1 (priority 2012, published 2013)
